How the values were obtained:
Assay in all cases: relative viability (nuclei count vs DMSO), 5 days (fraction); higher = more cells survive
[1] = compound: C[C@H]([C@@H](C(=O)N)NC(=O)[C@@H]1CSSC[C@@H](C(=O)N[C@H](C(=O)N[C@@H](C(=O)N[C@H](C(=O)N1)CCCCN)CC2=CNC3=CC=CC=C32)CC4=CC=C(C=C4)O)NC(=O)[C@@H](CC5=CC=CC=C5)N)O [CAP-232]
Method in brief: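 Lung cancer cell lines in 1536-well plates were exposed by pinning to five library-drug doses (not always all listed) √10 apart, following an overnight hold at 37 °C. MetaXpress counted Hoechst-stained nuclei from 4× images taken after 5 days without medium change. Viability is the median ratio of treated-well to vehicle-well nuclei across plates. Plates required control CV below 25% and at least one doubling.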

[2] = compound: C[C@H]([C@@H](C(=O)N)NC(=O)[C@@H]1CSSC[C@@H](C(=O)N[C@H](C(=O)N[C@@H](C(=O)N[C@H](C(=O)N1)CCCCN)CC2=CNC3=CC=CC=C32)CC4=CC=C(C=C4)O)NC(=O)[C@@H](CC5=CC=CC=C5)N)O [CAP-232] + Cc1cc(Nc2cc(N3CCN(C)CC3)nc(Sc3ccc(NC(=O)C4CC4)cc3)n2)n[nH]1 [Tozasertib] (partner 0.1 µM)
Method in brief: (§1)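 Lung cancer cell lines, seeded in 1536-well plates, were treated the following day by pin tool with a single drug or with five library-drug doses (not always all listed) in √10 steps on top of a fixed anchor-drug dose. Cells were fixed and nuclei stained in one step after 5 days, and nuclei were counted. Relative viability is the nuclei count for treated wells divided by that for vehicle wells, reported as medians of duplicate plates.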

[3] = compound: C[C@H]([C@@H](C(=O)N)NC(=O)[C@@H]1CSSC[C@@H](C(=O)N[C@H](C(=O)N[C@@H](C(=O)N[C@H](C(=O)N1)CCCCN)CC2=CNC3=CC=CC=C32)CC4=CC=C(C=C4)O)NC(=O)[C@@H](CC5=CC=CC=C5)N)O [CAP-232] + COc1cccc2cc(-c3nc([C@H]4CC[C@H](C(=O)O)CC4)n4ncnc(N)c34)[nH]c12 [OSI-027] (partner 0.5 µM)
Method in brief: as §1

[4] = compound: C[C@H]([C@@H](C(=O)N)NC(=O)[C@@H]1CSSC[C@@H](C(=O)N[C@H](C(=O)N[C@@H](C(=O)N[C@H](C(=O)N1)CCCCN)CC2=CNC3=CC=CC=C32)CC4=CC=C(C=C4)O)NC(=O)[C@@H](CC5=CC=CC=C5)N)O [CAP-232] + CCNC(=O)c1noc(-c2cc(C(C)C)c(O)cc2O)c1-c1ccc(CN2CCOCC2)cc1 [Luminespib] (partner 0.01 µM)
Method in brief: as §1

[5] = compound: C[C@H]([C@@H](C(=O)N)NC(=O)[C@@H]1CSSC[C@@H](C(=O)N[C@H](C(=O)N[C@@H](C(=O)N[C@H](C(=O)N1)CCCCN)CC2=CNC3=CC=CC=C32)CC4=CC=C(C=C4)O)NC(=O)[C@@H](CC5=CC=CC=C5)N)O [CAP-232] + N=C(N)NC(=N)NCCc1ccccc1 [Phenformin] (partner 250 µM)
Method in brief: as §1

[6] = compound: C[C@H]([C@@H](C(=O)N)NC(=O)[C@@H]1CSSC[C@@H](C(=O)N[C@H](C(=O)N[C@@H](C(=O)N[C@H](C(=O)N1)CCCCN)CC2=CNC3=CC=CC=C32)CC4=CC=C(C=C4)O)NC(=O)[C@@H](CC5=CC=CC=C5)N)O [CAP-232] + COc1cc2c(Oc3ccc(NC(=O)C4(C(=O)Nc5ccc(F)cc5)CC4)cc3F)ccnc2cc1OCCCN1CCOCC1 [Foretinib] (partner 0.25 µM)
Method in brief: as §1

[7] = compound: C[C@H]([C@@H](C(=O)N)NC(=O)[C@@H]1CSSC[C@@H](C(=O)N[C@H](C(=O)N[C@@H](C(=O)N[C@H](C(=O)N1)CCCCN)CC2=CNC3=CC=CC=C32)CC4=CC=C(C=C4)O)NC(=O)[C@@H](CC5=CC=CC=C5)N)O [CAP-232] + Cc1nc(Nc2ncc(C(=O)Nc3c(C)cccc3Cl)s2)cc(N2CCN(CCO)CC2)n1 [Dasatinib] (partner 0.075 µM)
Method in brief: as §1

NCI-H1623
relative viability ([1]; 0.4 µM): 1.06
relative viability ([1]; 1.265 µM): 1.02
relative viability ([1]; 4 µM): 0.92
relative viability ([1]; 12.65 µM): 1.01
relative viability ([2]; first compound 0.4 µM): 0.713
relative viability ([2]; first compound 1.265 µM): 0.411
relative viability ([2]; first compound 4 µM): 0.465
relative viability ([2]; first compound 12.65 µM): 0.632
relative viability ([3]; first compound 0.4 µM): 0.412
relative viability ([3]; first compound 1.265 µM): 0.495
relative viability ([3]; first compound 4 µM): 0.488
relative viability ([3]; first compound 12.65 µM): 0.38
relative viability ([4]; first compound 0.4 µM): 0.503
relative viability ([4]; first compound 1.265 µM): 0.467
relative viability ([4]; first compound 4 µM): 0.557
relative viability ([4]; first compound 12.65 µM): 0.359
relative viability ([5]; first compound 0.4 µM): 0.589
relative viability ([5]; first compound 1.265 µM): 0.579
relative viability ([5]; first compound 4 µM): 0.603
relative viability ([5]; first compound 12.65 µM): 0.566
relative viability ([6]; first compound 0.4 µM): 0.945
relative viability ([6]; first compound 1.265 µM): 0.802
relative viability ([6]; first compound 4 µM): 0.849
relative viability ([6]; first compound 12.65 µM): 0.769
relative viability ([7]; first compound 0.4 µM): 0.612
relative viability ([7]; first compound 1.265 µM): 0.47
relative viability ([7]; first compound 4 µM): 0.521
relative viability ([7]; first compound 12.65 µM): 0.742
